Source: PubChem BioAssay AID1963445 (Molecular Pharmacology Branch, DTP, NCI, 2024)
Several values for one entry are separate records, joined by “and”; a condition that tells them apart may be missing. Identical values can stand only once.

System: MCF7 complex spheroid growth, % test/control
Test: Anticancer human tumor MCF7 cell line growth inhibition [Asc];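 note: spheroids exposed to compounds for 7 days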;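 for viability, T/C: 100% = DMSO vehicle control wells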
Conditions: for viability, T/C: stronger effect = lower value
Outline: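 Concentration series start at each agent's clinical Cmax, or at 10 microM when none is established, and drop in half-log steps; agents are applied alone or together to complex spheroids built with HUVEC and hMSC.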

[1] = curve of first compound, second compound 0.00949 µM
[2] = curve of first compound, second compound 0.03 µM
[3] = curve of first compound, second compound 0.0949 µM
[4] = curve of first compound, second compound 0.3 µM
[5] = curve of first compound, second compound 0.949 µM
[6] = curve of first compound, second compound 3 µM
[7] = second compound 0.00949 µM, first compound 0.0316 µM
[8] = second compound 0.00949 µM, first compound 0.1 µM
[9] = second compound 0.00949 µM, first compound 0.316 µM
[10] = second compound 0.00949 µM, first compound 1 µM
[11] = second compound 0.03 µM, first compound 0.0316 µM
[12] = second compound 0.03 µM, first compound 0.1 µM
[13] = second compound 0.03 µM, first compound 0.316 µM
[14] = second compound 0.03 µM, first compound 1 µM
[15] = second compound 0.0949 µM, first compound 0.0316 µM
[16] = second compound 0.0949 µM, first compound 0.1 µM
[17] = second compound 0.0949 µM, first compound 0.316 µM
[18] = second compound 0.0949 µM, first compound 1 µM
[19] = second compound 0.3 µM, first compound 0.0316 µM
[20] = second compound 0.3 µM, first compound 0.1 µM
[21] = second compound 0.3 µM, first compound 0.316 µM
[22] = second compound 0.3 µM, first compound 1 µM
[23] = second compound 0.949 µM, first compound 0.0316 µM
[24] = second compound 0.949 µM, first compound 0.1 µM
[25] = second compound 0.949 µM, first compound 0.316 µM
[26] = second compound 0.949 µM, first compound 1 µM
[27] = second compound 3 µM, first compound 0.0316 µM
[28] = second compound 3 µM, first compound 0.1 µM
[29] = second compound 3 µM, first compound 0.316 µM
[30] = second compound 3 µM, first compound 1 µM
[31] = second compound 0.00949 µM, first compound 0.00316 µM
[32] = second compound 0.00949 µM, first compound 0.01 µM
[33] = second compound 0.03 µM, first compound 0.00316 µM
[34] = second compound 0.03 µM, first compound 0.01 µM
[35] = second compound 0.0949 µM, first compound 0.00316 µM
[36] = second compound 0.0949 µM, first compound 0.01 µM
[37] = second compound 0.3 µM, first compound 0.00316 µM
[38] = second compound 0.3 µM, first compound 0.01 µM
[39] = second compound 0.949 µM, first compound 0.00316 µM
[40] = second compound 0.949 µM, first compound 0.01 µM
[41] = second compound 3 µM, first compound 0.00316 µM
[42] = second compound 3 µM, first compound 0.01 µM

O=C(c1cc(Cc2n[nH]c(=O)c3ccccc23)ccc1F)N1CCN(C(=O)C2CC2)CC1 + CCN1C(C(=O)NC23CCC(C(=O)O)(CC2)CC3)C(c2cccc(Cl)c2F)C2(C(=O)Nc3cc(Cl)ccc32)C12CCCCC2
IC50 [1]: > 10000 nM
IC50 [2]: > 10000 nM
IC50 [3]: < 31.6 nM
IC50 [4]: < 31.6 nM
IC50 [5]: < 31.6 nM
IC50 [6]: < 31.6 nM
viability, T/C [7]: 133%
viability, T/C [8]: 96.8%
viability, T/C [9]: 107%
viability, T/C [10]: 106%
viability, T/C (second compound 0.00949 µM, first compound 3.16 µM): 92.3%
viability, T/C (second compound 0.00949 µM, first compound 10 µM): 73%
viability, T/C [11]: 85.6%
viability, T/C [12]: 81.5%
viability, T/C [13]: 87%
viability, T/C [14]: 86%
viability, T/C (second compound 0.03 µM, first compound 3.16 µM): 74.2%
viability, T/C (second compound 0.03 µM, first compound 10 µM): 62.2%
viability, T/C [15]: 46.7%
viability, T/C [16]: 47.4%
viability, T/C [17]: 51.4%
viability, T/C [18]: 45.5%
viability, T/C (second compound 0.0949 µM, first compound 3.16 µM): 38.9%
viability, T/C (second compound 0.0949 µM, first compound 10 µM): 44.5%
viability, T/C [19]: 34.3%
viability, T/C [20]: 30.3%
viability, T/C [21]: 32.8%
viability, T/C [22]: 30.6%
viability, T/C (second compound 0.3 µM, first compound 3.16 µM): 29.4%
viability, T/C (second compound 0.3 µM, first compound 10 µM): 29%
viability, T/C [23]: 21%
viability, T/C [24]: 22.7%
viability, T/C [25]: 21.5%
viability, T/C [26]: 21.6%
viability, T/C (second compound 0.949 µM, first compound 3.16 µM): 25.7%
viability, T/C (second compound 0.949 µM, first compound 10 µM): 19.6%
viability, T/C [27]: 13.7%
viability, T/C [28]: 16.2%
viability, T/C [29]: 14.4%
viability, T/C [30]: 14.9%
viability, T/C (second compound 3 µM, first compound 3.16 µM): 18.9%
viability, T/C (second compound 3 µM, first compound 10 µM): 15.9%

CNC(C)C(=O)NC1CN(S(=O)(=O)c2cccc(S(=O)(=O)N3CCC4CCC(C(=O)NC(c5ccccc5)c5ccccc5)N4C(=O)C(NC(=O)C(C)NC)C3)c2)CCC2CCC(C(=O)NC(c3ccccc3)c3ccccc3)N2C1=O (stereo not drawn) + CCN1C(C(=O)NC23CCC(C(=O)O)(CC2)CC3)C(c2cccc(Cl)c2F)C2(C(=O)Nc3cc(Cl)ccc32)C12CCCCC2
IC50 [1]: 4.89 nM
IC50 [2]: 4.19 nM
IC50 [3]: < 3.16 nM
IC50 [4]: < 3.16 nM
IC50 [5]: < 3.16 nM
IC50 [6]: < 3.16 nM
viability, T/C [31]: 69.8%
viability, T/C [32]: 17.4%
viability, T/C [7]: 16.6%
viability, T/C [8]: 14.7%
viability, T/C [9]: 17.1%
viability, T/C [10]: 15.5%
viability, T/C [33]: 61.2%
viability, T/C [34]: 13.8%
viability, T/C [11]: 13.1%
viability, T/C [12]: 19%
viability, T/C [13]: 15.5%
viability, T/C [14]: 15.8%
viability, T/C [35]: 32.7%
viability, T/C [36]: 8.77%
viability, T/C [15]: 9.56%
viability, T/C [16]: 11.9%
viability, T/C [17]: 11.5%
viability, T/C [18]: 16%
viability, T/C [37]: 15.1%
viability, T/C [38]: 8.53%
viability, T/C [19]: 9.64%
viability, T/C [20]: 9.86%
viability, T/C [21]: 11%
viability, T/C [22]: 12.2%
viability, T/C [39]: 10.9%
viability, T/C [40]: 10%
viability, T/C [23]: 7.29%
viability, T/C [24]: 8.83%
viability, T/C [25]: 10.5%
viability, T/C [26]: 12%
viability, T/C [41]: 11.6%
viability, T/C [42]: 9.65%
viability, T/C [27]: 9.98%
viability, T/C [28]: 9.21%
viability, T/C [29]: 12.1%
viability, T/C [30]: 12.5%

Cn1ncnc1[C@H]1c2n[nH]c(=O)c3cc(F)cc(c23)N[C@@H]1c1ccc(F)cc1 + CCN1C(C(=O)NC23CCC(C(=O)O)(CC2)CC3)C(c2cccc(Cl)c2F)C2(C(=O)Nc3cc(Cl)ccc32)C12CCCCC2
IC50 [1]: > 100 nM
IC50 [2]: > 100 nM
IC50 [3]: 1.99 nM
IC50 [4]: < 0.316 nM
IC50 [5]: < 0.316 nM
IC50 [6]: < 0.316 nM
viability, T/C (second compound 0.00949 µM, first compound 0.000316 µM): 121%
viability, T/C (second compound 0.00949 µM, first compound 0.001 µM): 98.8%
viability, T/C [31]: 116%
viability, T/C [32]: 73.1%
viability, T/C [7]: 92.4%
viability, T/C [8]: 67%
viability, T/C (second compound 0.03 µM, first compound 0.000316 µM): 67.4%
viability, T/C (second compound 0.03 µM, first compound 0.001 µM): 96.7%
viability, T/C [33]: 75.8%
viability, T/C [34]: 77.6%
viability, T/C [11]: 55.1%
viability, T/C [12]: 51%
viability, T/C (second compound 0.0949 µM, first compound 0.000316 µM): 51.9%
viability, T/C (second compound 0.0949 µM, first compound 0.001 µM): 56.7%
viability, T/C [35]: 52.3%
viability, T/C [36]: 38.8%
viability, T/C [15]: 37.7%
viability, T/C [16]: 37%
viability, T/C (second compound 0.3 µM, first compound 0.000316 µM): 35.9%
viability, T/C (second compound 0.3 µM, first compound 0.001 µM): 29.8%
viability, T/C [37]: 29.7%
viability, T/C [38]: 32.9%
viability, T/C [19]: 26.1%
viability, T/C [20]: 29.1%
viability, T/C (second compound 0.949 µM, first compound 0.000316 µM): 21.5%
viability, T/C (second compound 0.949 µM, first compound 0.001 µM): 23.1%
viability, T/C [39]: 16.4%
viability, T/C [40]: 15.9%
viability, T/C [23]: 20.8%
viability, T/C [24]: 18.4%
viability, T/C (second compound 3 µM, first compound 0.000316 µM): 15.6%
viability, T/C (second compound 3 µM, first compound 0.001 µM): 17.2%
viability, T/C [41]: 15.5%
viability, T/C [42]: 13.1%
viability, T/C [27]: 13.9%
viability, T/C [28]: 14.6%

NC(=O)C(=Cn1cnc(-c2cc(C(F)(F)F)cc(C(F)(F)F)c2)n1)c1cncnc1
viability, T/C (compound 0.000949 µM): 113% and 86% and 71.3%
viability, T/C (compound 0.003 µM): 95.1% and 90% and 67.6%
viability, T/C (compound 0.00949 µM): 81.6% and 81.3% and 64.6%
viability, T/C (compound 0.03 µM): 83.8% and 96.8% and 60.7%
viability, T/C (compound 0.0949 µM): 41.4% and 32.1% and 51.5%
viability, T/C (compound 0.3 µM): 16% and 17.7% and 24.4%
IC50 (curve of compound): 83.4 nM and 65.8 nM and 94.9 nM
